Source: patent publication US20180133211A1, “METHODS AND MATERIALS FOR PROMOTING BONE FORMATION” (Mayo Foundation for Medical Education and Research, priority 2015, published 2018)

Experiments:
Assay type in all cases: cell-based, mouse
RAW 264.7 cells [1] = experiment: Cell count (proliferation/viability); conditions: RAW 264.7, 24 hours, doses of 3 μM and higher
Experimental: Cell lines were seeded in 24-well culture dishes at a density of 20,000/cm^2 and were either left untreated (controls) or treated with L- or DL-SFN at the indicated concentrations for up to 48 hours. Thereafter, cells were detached with 0.001% pronase E, and the number of viable cells was assessed with Casy cell counter (Schaerfe Systems, Reutlingen, Germany). Each experiment was performed in quadruplicate, and experiments were carried out twice. For long term experiments, cell number was determined using DNA amount as surrogate. Cell layers were washed with PBS and fixed for 20 minutes with 4% PFA. Thereafter, Hoechst 33258 dye (Polysciences, Warrington, Pa., USA) was added (1 μg/mL), and, after an incubation of 15 minutes at room temperature, the fluorescence was measured (excitation 360, emission 465 nm). The amount of DNA was estimated using a standard curve prepared from calf thymus DNA (Roche).

MC3T3-E1 cells [2] = experiment: RT-qPCR mRNA expression; conditions: MC3T3-E1, 3 μM; for mRNA expression of Bglap2, Colla1, Lox and Alpl: 14 days
Experimental: Total RNA was extracted using the SV Total RNA Isolation kit (Promega) following the supplier's instructions. cDNA was synthesized from about 0.5 μg RNA using the First Strand cDNA Synthesis kit (Roche) as described by the supplier. The resulting cDNAs were subjected to quantitative PCR amplification with a real-time cycler using the QUANTITECT™ SYBR® Green PCR Kit (Qiagen, Hilden, Germany) for the genes Alpl, Fas, Lox, Tet1, Tet2, and TAQMAN® Gene expression Master Mix (Applied Biosystems, Foster City, Calif., USA) for measuring Runx2, Bglap2, Colla1, Tnfsf11, and 18S rRNA expression (for primers, see Table 1). SYBR-Green RT-qPCR was started with an initial denaturation step at 95° C. for 10 minutes and then continued with 45 cycles consisting of 30 seconds denaturation at 95° C., 30 seconds annealing at primer-specific temperatures, and extension at 72° C. For measurement of the TAQMAN® assays, an initial denaturation at 95° C. for 10 minutes was applied, followed by 45 cycles alternating 60 seconds at 60° C. and 15 seconds at 95° C. All RT-qPCR assays were performed in triplicate, and expression was evaluated using the comparative quantification method (Pfaffl, Nucleic Acids Res., 29:e45 (2001)).

BMSCs = experiment: ECM mineralization by Alizarin Red stain; conditions: long-term treatment in osteogenic media
Experimental: Mouse bone marrow mesenchymal stem cells were isolated from aseptically dissected long bones of 6-week old C57BL/6 mice (Himberg, Austria). The marrow cavities were flushed with sterile medium using a 25-gauge needle, and the culture was established in α-MEM supplemented with 10% FCS and […]. After 48 hours of culture at 5% CO2 and 37° C., the non-adherent cells were removed by gentle rinsing with PBS. At confluence, cells were harvested and seeded at a density of 3,000/cm^2 for cell experiments. For osteogenic differentiation, cells were cultured in α-MEM supplemented with 10% FBS, […], 100 nM dexamethasone, 10 mM β-glycerophosphate, and 50 μg/mL ascorbic acid with or without L- or DL-SFN. Culture medium was renewed twice a week, and cells were cultured for the periods indicated in the result section.
Calvariae from 2 to 3-day-old and from 7-week old C57BL/6 mice were dissected aseptically. […] Thereafter, one part of the calvariae were fixed for 1 hour in 4% para-formaldehyde (PFA), and mineralization was measured by Alizarin Red S stain (Sigma-Aldrich). […] Alizarin Red S absorbance was measured at 562 nm in a multi-plate reader (Tecan, Maennedorf, Switzerland) and normalized to total protein amount measured by bicinchoninic acid assay (Thermo Fisher Scientific, Waltham, Mass., USA). […]

[3] = system: neonatal calvarial explants; experiment: ECM mineralization by Alizarin Red stain in calvarial explants; conditions: newborn calvarial explants, 3 μM
Experimental: Calvariae from 2 to 3-day-old and from 7-week old C57BL/6 mice were dissected aseptically. The calvarial bone explants were cultured in 48-well plates in α-MEM (Biochrom) containing 10% FCS (Biochrom), 50 μg/mL ascorbic acid (Sigma-Aldrich), 5 mM β-glycerophosphate (Sigma-Aldrich), and 10 μg/mL gentamicin (Sigma-Aldrich). […] Thereafter, one part of the calvariae were fixed for 1 hour in 4% para-formaldehyde (PFA), and mineralization was measured by Alizarin Red S stain (Sigma-Aldrich). For this purpose, Alizarin Red S dye was extracted using 10% cetylpyridinium chloride (CPC) in 10 mM sodiumphosphate (pH=7.0) for 45 minutes at room temperature. Alizarin Red S absorbance was measured at 562 nm in a multi-plate reader (Tecan, Maennedorf, Switzerland) and normalized to total protein amount measured by bicinchoninic acid assay (Thermo Fisher Scientific, Waltham, Mass., USA). From the other part of the calvariae, total RNA was extracted.

MC3T3-E1 cells [4] = experiment: Global cytosine 5-hydroxymethylation (5hmC); conditions: MC3T3-E1, 3 μM, 16 hours
Experimental: (§1) Cells were fixed with 4% paraformaldehyde in PBS for 20 minutes at room temperature and permeabilized with 0.2% triton in 4% paraformaldehyde in PBS. Thereafter, cell layers were blocked for 20 minutes with 10% blocking reagent (Roche) and incubated for one further hour with 0.5 μg/mL anti-5hmC antibody (Abgent). Afterwards, the cells were washed thrice with PBS and incubated for one further hour with an Alexa488 labeled secondary antibody (Invitrogen) diluted 1:300 in blocking buffer. Finally, nuclei were stained with Hoechst 33258 dye (Polysciences).
(§2) For immunostaining, cell slides were mounted with VECTASHIELD® mounting media, and immunofluorescence was visualized on a Leica laser-scanning microscope. No signal was found by using only the Alexa488 labeled secondary antibody (Invitrogen). For quantification of global cytosine 5hmC, the fluorescence in the plates was measured with a multiwell plate reader (Tecan). The amount of DNA (nuclei signal) was estimated using a standard curve prepared from calf thymus DNA (Roche). The signal of the fluorescence of the 5hmC staining was normalized to the amount of DNA. Also, in this case, no signals were found when only the Alexa488 labeled secondary antibody (Invitrogen) was used.

MLO-Y4 cells = experiment: Global cytosine 5-hydroxymethylation (5hmC); conditions: MLO-Y4, 3 μM, 16 hours
Experimental: as §1, §2

RAW 264.7 cells [5] = experiment: Global cytosine 5-hydroxymethylation (5hmC); conditions: RAW 264.7, 3 μM, 16 hours
Experimental: as §1, §2

## C[S+]([O-])CCCCN=C=S [L-SFN]
RAW 264.7 cells [1]
  number of viable cells: reduced
MC3T3-E1 cells [2]; 8 hours
  Fas mRNA expression: not affected
MC3T3-E1 cells [2]
  mRNA expression of Bglap2, Colla1, Lox and Alpl: increased
BMSCs
  ECM mineralization: significantly increased
[3]
  ECM mineralization: significantly increased
MC3T3-E1 cells [4]
  global 5hmC: significant global increase
MLO-Y4 cells
  5hmC levels: did not elevate
RAW 264.7 cells [5]
  increase of global levels of 5hmC: < 2 fold

## C[S+]([O-])CCCCN=C=S (racemic) [DL-SFN]
RAW 264.7 cells [1]
  number of viable cells: reduced
MC3T3-E1 cells [2]
  Runx2 mRNA expression: stimulates
  mRNA expression of Bglap2, Colla1, Lox and Alpl: increased
MC3T3-E1 cells [2]; 8 hours
  Fas mRNA expression: not affected
MC3T3-E1 cells [2]; 16 hours
  Fas mRNA expression: significantly increased
BMSCs
  ECM mineralization: significantly increased
[3]
  ECM mineralization: significantly increased
MC3T3-E1 cells [4]
  global 5hmC: significant global increase
MLO-Y4 cells
  5hmC levels: did not elevate
RAW 264.7 cells [5]
  increase of global levels of 5hmC: ~3 fold
